Columns and labels:
[1] = molecular target: T1, MUC1-C (Homo sapiens, UniProt P15941); experiment: Immunoblot of whole cell and nuclear MUC1-C levels in ZR-75-1 cells; format: cell-based; set-up: Human ZR-75-1 and MCF-7 breast cancer cells overexpress endogenous MUC1; endogenous in cells; host or cells: ZR-75-1; MCF-7; conditions: ZR-75-1, 5 μM peptide, 3 d; for nuclear MUC1-C levels: nuclear lysates; for cellular MUC1-C levels: whole cell lysates
T1 sequence (P15941 1098-1255 limits assumed): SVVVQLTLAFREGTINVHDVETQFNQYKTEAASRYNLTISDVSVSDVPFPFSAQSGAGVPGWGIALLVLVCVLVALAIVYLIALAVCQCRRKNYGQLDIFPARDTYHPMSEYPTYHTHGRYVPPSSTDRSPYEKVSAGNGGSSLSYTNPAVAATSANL
Description: FIGS. 2A-C. MUC1/CQC peptide blocks nuclear localization of MUC1-C. (FIG. 2A) ZR-75-1 cells were incubated with 5 μM FITC-labeled MUC1/CQC peptide for the indicated times and then analyzed by flow cytometry. The mean fluorescence index (MFI) is included in each of the panels. (FIGS. 2B-C) ZR-75-1 (FIG. 2B) and MCF-7 (FIG. 2C) cells were incubated in the presence of 5 μM MUC1/CQC or MUC1/AQA peptide for 3 d. Whole cell lysates (WCL) (left panels) and nuclear lysates (right panels) were immunoblotted with the indicated antibodies.
Whole cell and nuclear lysates were prepared as described (Leng et al., 2007). Soluble proteins were subjected to immunoprecipitation with anti-Flag (Sigma, St. Louis, Mo.). Immunoprecipitates and soluble proteins were analyzed by immunoblotting with anti-His (Cell Signaling Technology, Danvers, Mass.), anti-GFP (Millipore, Danvers, Mass.), anti-Flag, anti-MUC1-C (Ab1; NeoMarkers, Fremont, Calif.), anti-lamin B (EMD, La Jolla, Calif.) or anti-β-actin (Sigma). Reactivity was detected with horseradish peroxidase-conjugated second antibodies and chemiluminescence.

[2] = molecular target: T2, His-MUC1-CD (Homo sapiens, UniProt P15941); experiment: BIAcore binding of peptides to immobilized His-MUC1-CD
T2 construct: made in house
T2 sequence (P15941 1184-1255): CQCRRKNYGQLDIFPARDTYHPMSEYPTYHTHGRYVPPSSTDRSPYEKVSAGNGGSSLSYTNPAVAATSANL
Description: FIGS. 1A-D. MUC1/CQC peptide blocks MUC1 oligomerization. (FIG. 1A) Schematic representation of the MUC1-C subunit and the 72-amino acid sequence of MUC1-CD (SEQ ID NO: 1) are shown. The N-terminal 15 amino acids (shaded sequence) MUC1/CQC (SEQ ID NO: 10) and mutated MUC1/AQA (SEQ ID NO: 11) peptides were synthesized with the poly-dArg transduction domain. (FIG. 1B) His-MUC1-CD (1.4 mg/ml) was immobilized on a sensor chip in a BIAcore. MUC1/CQC was injected over the chip at 10 μM. Raw binding data were analyzed by BIAevaluation software version 3.0 and fit to a 1:1 Languir binding model. (FIG. 1C) Purified His-MUC1-CD (1.5 mg/ml) was incubated with PBS, 200 μM MUC1/CQC or 200 μM MUC1/AQA for 1 h at room temperature. The proteins were separated in a non-reducing SDS-polyacrylamide gel and analyzed by immunoblotting with anti-MUC1-C. (FIG. 1D) 293 cells were transiently transfected to express an empty vector or GFP-MUC1-CD and Flag-MUC1-CD. At 48 h after transfection, the cells were treated with 5 μM MUC1/CQC or MUC1/AQA for 3 d. The cells were then harvested for immunoblotting with anti-MUC1-C (left panel). […]
The MUC1 cytoplasmic domain (MUC1-CD) contains a CQC motif that is necessary for the formation of oligomers and nuclear localization (Leng et al., 2007). […] Purified His-tagged MUC1-CD forms oligomers as detected by electrophoresis in polyacrylamide gels (FIG. 1C). […]

[3] = test system: ZR-75-1 cells; experiment: Cell cycle distribution, apoptosis and necrosis by flow cytometry, ZR-75-1; format: cell-based, human; conditions: ZR-75-1, 5 μM; for necrosis (propidium iodide): detectable at 72 h, more prominent at 96 h
Description: FIGS. 3A-D. MUC1/CQC peptide induces S phase arrest and necrosis. ZR-75-1 (FIGS. 2A-B) and MCF-7 (FIGS. 2C-D) cells were treated with 5 μM MUC1/CQC or MUC1/AQA for 3 and 4 d. Cells were fixed and analyzed for cell cycle distribution by flow cytometry (FIGS. 2A and 2C). The percentage of cells in G1, S and G2/M phases is included in the panels. Cells were also stained with propidium iodide and analyzed by flow cytometry for necrosis (FIGS. 2B and 2D). The percentage of necrotic cells is included in the panels.
Cells were harvested, washed with PBS, fixed with 80% ethanol, and incubated in PBS containing 40 μg/ml RNAse and 40 μg/ml propidium iodide for 30 min at 37° C. Cell cycle distribution was determined by flow cytometry. Sub-G1 DNA content was assessed by staining ethanol-fixed and citrate buffer-permeabilized cells with propidium iodide and monitoring by flow cytometry as described (Yin et al., 2007). For assessment of necrosis, cells were incubated with 1 μg/ml propidium iodide/PBS for 5 min at room temperature and then monitored by flow cytometry as described (Yin et al., 2007).

[4] = test system: MUC1 promoter; experiment: MUC1-C occupancy on the MUC1 promoter; format: cell-based

nuclear MUC1-C levels [1]	cellular MUC1-C levels [1]	binding to His-MUC1-CD ([2]; BIAcore, data not shown)	Kd ([2]; His-tagged MUC1-CD immobilized on BIAcore sensor chip, peptide injected at 10 μM, 1:1 binding model, read-out: dissociation constant (Kd)) [nM]	Compound	necrosis (propidium iodide) [3]	sub-G1 DNA content (apoptosis) [3]	cell cycle distribution ([3]; 72 h)	cell cycle distribution ([3]; 96 h)	MUC1-C occupancy on the MUC1 promoter [4]
not	no effect	no apparent binding		MUC1/AQA: control peptide in which the CQC motif was altered to AQA (SEQ ID NO: 11) (AQARRKNYGQLDIFP) [reference compound]	not				
decreases in nuclear MUC1-C levels	no effect		30	CC[C@H](C)[C@H](NC(=O)[C@H](CC(=O)O)NC(=O)[C@H](CC(C)C)NC(=O)[C@H](CCC(N)=O)NC(=O)CNC(=O)[C@H](Cc1ccc(O)cc1)NC(=O)[C@H](CC(N)=O)NC(=O)[C@H](CCCCN)NC(=O)[C@H](CCCNC(=N)N)NC(=O)[C@H](CCCNC(=N)N)NC(=O)[C@H](CS)NC(=O)[C@H](CCC(N)=O)NC(=O)[C@H](CS)NC(=O)[C@@H](CCCNC(=N)N)NC(=O)[C@@H](CCCNC(=N)N)NC(=O)[C@@H](CCCNC(=N)N)NC(=O)[C@@H](CCCNC(=N)N)NC(=O)[C@@H](CCCNC(=N)N)NC(=O)[C@@H](CCCNC(=N)N)NC(=O)[C@@H](CCCNC(=N)N)NC(=O)[C@@H](CCCNC(=N)N)NC(=O)[C@H](N)CCCNC(=N)N)C(=O)N[C@@H](Cc1ccccc1)C(=O)N1CCC[C@H]1C(=O)O [MUC1/CQC]	induction of necrosis	little if any accumulation of cells with sub-G1 DNA content	substantial arrest in S phase	S phase population was decreased	
				O=c1cc(-c2ccc(O)cc2)oc2cc(O)cc(O)c12 [Apigenin, 4′,5,7-trihydroxyflavone]					blocked MUC1-C occupancy on the MUC1 promoter
				O=c1cc(-c2ccccc2)oc2cc(O)c(O)c(O)c12 [Baicalein, 5,6,7-trihydroxyflavone, reference compound]					not

Reference: patent US8952054B2, “Small molecule inhibitors of MUC1 and methods of identifying the same” (Dana-Farber Cancer Institute, Inc., priority 2010, dated 2015)
